{"source": "patent US20250206779A1", "about": "“ANGIOTENSIN-(1-9) ANALOGUE BASED ON D AMINO ACIDS, PHARMACEUTICAL COMPOSITIONS AND USES THEREOF” (UNIVERSIDAD DE CHILE, priority 2021, published 2025)", "key": {"[1]": {"tested_on": "adult rat cardiac fibroblasts", "test": "Cardiac fibroblast proliferation, cell count in Neubauer chamber", "type": "cell-based", "conditions": "DMEM F-12 5% FBS, 24 h, trypan blue cell count", "description": "Male Sprague-Dawley rats (250-300 g) were anesthetized with ketamine-xylazine (66 and 1.6 mg/kg i.p., respectively). Adult rat cardiac fibroblasts were isolated by retrograde aortic perfusion. Briefly, hearts were digested with collagenase type B solution for 1 h, and cells were centrifuged at 500 rpm for 2 min. The supernatant, mainly adult rat cardiac fibroblasts, was centrifuged at 1000 rpm for 10 min, resuspended in Dulbecco's Modified Eagle Medium: Nutrient Mixture F-12 (DMEM F-12) plus 15% fetal bovine serum (FBS) and then seeded in nontreated culture dishes during 3 h. Cells were washed with phosphate buffered saline to eliminate debris and nonadherent cells. Adult rat cardiac fibroblasts were used at passage one and seeded on 60 mm cell culture dishes in DMEM F-12 plus 10% FBS and incubated at […] for 3 h. To synchronize cells, they were washed and incubated in DMEM F-12 (without serum, 0% FBS) for 24 h before experimentation. Cell proliferation was determined in cardiac fibroblasts incubated for 24 h with and without retro-inverse angiotensin-(1-9) in DMEM F-12 5% FBS. Cells were trypsinized and cell number was determined using trypan blue method in a Neubauer chamber."}, "[2]": {"tested_on": "spontaneously hypertensive rats (SHR)", "test": "β-MHC protein level in left ventricle of SHR (cardiac hypertrophy)", "type": "in vivo, rat", "conditions": "SHR, 1,200 ng/kg/min, 14 days, left ventricle western blot", "description": "(§1) Experimental animal model. All procedures were performed in accordance with the Guide for the Care and Use of Laboratory Animals published by the U.S. National Institutes of Health (NIH Publication 85 23, 1985) and approved by our Institutional Bioethics Committee. The animals were housed under the continuous professional monitoring of the Medical Veterinary staff in the animal facility of the Pontificia Universidad Católica de Chile, under the following conditions: 12-h light-dark cycle; 21° C. ambient temperature; 50% humidity; adequate ventilation; noise-free environment; and food and water ad libitum. Male spontaneously hypertensive rats (SHR, age 12 weeks) and normotensive Wistar Kyoto rats (WKY, 12 weeks age) were used. […] Systolic blood pressure (SBP), diastolic blood pressure (DBP) and body weight (BW) were measured at the end of the treatment period and the animals were then sacrificed.\nMeasurement of β-MHC protein level to assess cardiac hypertrophy. β-MHC protein levels were determined by Western blotting. […] Digital images obtained from the photographic films were analyzed by densitometry using Image J software (NIH, USA). […]"}, "[3]": {"tested_on": "spontaneously hypertensive rats (SHR)", "test": "Cardiac fibrosis in SHR, picrosirius red staining", "type": "in vivo, rat", "conditions": "SHR, 1,200 ng/kg/min, 14 days", "description": "as §1\nEvaluation of cardiac fibrosis. […] In hypertense SHR increased picrosirius red staining was detected in the hearts, indicating the presence of interstitial collagen, a marker of cardiac fibrosis."}, "[4]": {"tested_on": "spontaneously hypertensive rats (SHR)", "test": "Cardiac-resident macrophage phenotype M1/M2 in SHR, flow cytometry", "type": "in vivo, rat", "conditions": "SHR, 1,200 ng/kg/min, 14 days", "description": "as §1, with “sacrificed. […]” for “sacrificed.”"}}, "note": "“Also recorded” adds a separate entry of the source. Where a SMILES comes first, the peptide text is derived from it. [ ]: non-standard residue; d: D form.", "data": [{"smiles": "CC[C@@H](C)[C@@H](NC(=O)[C@@H](Cc1c[nH]cn1)NC(=O)[C@H]1CCCN1C(=O)[C@@H](Cc1ccccc1)NC(=O)[C@H](N)Cc1c[nH]cn1)C(=O)N[C@H](Cc1ccc(O)cc1)C(=O)N[C@@H](C(=O)N[C@H](CCCNC(=N)N)C(=O)N[C@H](CC(=O)O)C(=O)O)C(C)C", "note": "[retro-inverse angiotensin-(1-9), NH2-^DH^DF^DP^DH^DI^DY^DV^DR^DD-COOH] (H-[dH][dF][dP][dH][dI][dY][dV][dR][dD]-OH)", "values": [{"measurement": "fibroblast proliferation", "setting": "[1]", "result": "inhibited fibroblast proliferation"}, {"measurement": "increase in β-MHC induced by hypertension", "setting": "[2]", "result": "reversed the increase"}, {"measurement": "accumulation of collagen in cardiac tissue", "setting": "[3]", "result": "completely revert"}, {"measurement": "macrophages M1 in cardiac tissues", "setting": "[4]", "result": "reversed the increase; also recorded: more marked decrease in macrophages M1 than angiotensin-(1-9)"}, {"measurement": "macrophages M2 in cardiac tissues", "setting": "[4]", "result": "increases the macrophages M2"}]}]}
